Assay results published in paper PMC7588595, “Small-molecule active pharmaceutical ingredients of approved cancer therapeutics inhibit human aspartate/asparagine-β-hydroxylase” (Bioorganic & Medicinal Chemistry, 2020).
Structures can show the parent of a compound that is named as a salt. Where two headings read alike, the source gives them in different places.

Target: T1, human AspH (His6-AspH315–758) (Homo sapiens, UniProt Q12797)
T1 construct: N-Terminally His6-tagged human AspH315–758 (His6-AspH315–758) was produced in Escherichia coli BL21 (DE3) cells; made in house; host or cells: Escherichia coli BL21 (DE3), pET-28a(+) vector
T1 sequence (Q12797 315-758): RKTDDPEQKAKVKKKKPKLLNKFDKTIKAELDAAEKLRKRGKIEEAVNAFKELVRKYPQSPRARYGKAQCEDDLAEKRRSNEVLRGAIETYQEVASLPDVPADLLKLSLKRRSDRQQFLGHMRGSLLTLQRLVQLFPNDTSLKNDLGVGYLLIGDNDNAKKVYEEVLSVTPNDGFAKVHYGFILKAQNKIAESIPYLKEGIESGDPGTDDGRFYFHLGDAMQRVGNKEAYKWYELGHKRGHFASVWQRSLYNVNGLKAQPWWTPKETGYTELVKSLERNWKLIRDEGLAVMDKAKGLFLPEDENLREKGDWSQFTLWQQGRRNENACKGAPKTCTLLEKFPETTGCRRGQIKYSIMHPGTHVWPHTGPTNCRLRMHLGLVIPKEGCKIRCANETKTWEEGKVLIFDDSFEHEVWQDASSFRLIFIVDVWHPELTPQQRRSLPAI
Experiment: SPE-MS AspH inhibition assay (hFX-CP101-119 substrate hydroxylation)
Assay type: biochemical

[1] = AspH-inhibitor screening, 384-well Plate 1
[2] = AspH-inhibitor screening, 384-well Plate 1, substrate conversion
[3] = AspH-inhibitor screening, Plate 1-duplicate
[4] = AspH-inhibitor screening, Plate 1-duplicate, substrate conversion

Row | Compound | Plate 1 (% inhibition) [1] [%] | Plate 1 (% conversion) [2] [%] | Plate 1-duplicate (% inhibition) [3] [%] | Plate 1-duplicate (% conversion) [4] [%] | Plate 1 (% conversion) [%] | Plate 1 (% inhibition) [%] | Plate 1-duplicate (% conversion) [%] | Plate 1-duplicate (% inhibition) [%]
1 | CC(=O)Nc1ccc(C(=O)Nc2ccccc2N)cc1 [CI-994_Tacedinaline] | 4.32 | 47.76 | 4.57 | 49.78 | – | – | – | –
2 | O=C(O)CCCCC(CCSCc1ccccc1)SCc1ccccc1 (stereo not shown) [CPI-613] | -2.25 | 50.79 | -2.45 | 53.26 | – | – | – | –
3 | C#Cc1cccc(Nc2ncnc3cc(OC)c(OCCCCCCC(=O)NO)cc23)c1 [CUDC-101] | 70.67 | 17.12 | 72.15 | 16.26 | – | – | – | –
4 | N#CCNC(=O)c1ccc(-c2ccnc(Nc3ccc(N4CCOCC4)cc3)n2)cc1 [CYT-387_Momelotinib] | 5.72 | 47.11 | 4.84 | 49.64 | – | – | – | –
5 | CC[C@@]1(O)C(=O)OCc2c1cc1n(c2=O)Cc2cc3ccccc3nc2-1 [Camptothecin] | 4.52 | 47.66 | 4.34 | 49.89 | – | – | – | –
6 | CCCCCOC(=O)Nc1nc(=O)n([C@@H]2O[C@H](C)[C@@H](O)[C@H]2O)cc1F [Capecitabine] | 3.89 | 47.95 | 10.65 | 46.76 | – | – | – | –
7 | N.N.O=C([O-])C1(C(=O)[O-])CCC1.[Pt+2] [Carboplatin] | 3.32 | 48.22 | 9.11 | 47.52 | – | – | – | –
8 | O=NN(CCCl)C(=O)NCCCl [Carmustine] | 1.59 | 49.02 | 7.94 | 48.11 | – | – | – | –
9 | Cc1ccc(-c2cc(C(F)(F)F)nn2-c2ccc(S(N)(=O)=O)cc2)cc1 [Celecoxib] | -8.28 | 53.57 | -15.35 | 59.65 | – | – | – | –
10 | O=C(O)CCCc1ccc(N(CCCl)CCCl)cc1 [Chlorambucil] | 2.87 | 48.43 | 1.52 | 51.29 | – | – | – | –
11 | CCN(CC)CCCC(C)Nc1ccnc2cc(Cl)ccc12 (stereo not shown) [Chloroquine diphosphate] | – | – | – | – | 43.64 | 13.23 | 46.45 | 11.28
12 | N.N.[Cl][Pt][Cl] [Cisplatin aq] | 26.89 | 37.33 | 26.45 | 38.92 | – | – | – | –
13 | Nc1nc(Cl)nc2c1ncn2[C@H]1C[C@H](O)[C@@H](CO)O1 [Cladribine] | 3.47 | 48.15 | 3.70 | 50.21 | – | – | – | –
14 | O=P1(N(CCCl)CCCl)NCCCO1 (stereo not shown) [Clafen (Cyclophosphamide, Endoxan)] | – | – | – | – | 48.48 | 2.76 | 50.72 | 2.67
15 | Nc1nc(Cl)nc2c1ncn2[C@@H]1O[C@H](CO)[C@@H](O)[C@@H]1F [Clofarabine] | 6.71 | 46.65 | 3.66 | 50.22 | – | – | – | –
16 | O=C(c1ccc(F)c(F)c1Nc1ccc(I)cc1F)N1CC(O)([C@@H]2CCCCN2)C1 [Cobimetinib] | -5.94 | 52.49 | -8.08 | 56.05 | – | – | – | –
17 | CC1(COc2ccc3c(c2)ncn3-c2ccc3cccc(N4CCC(N)CC4)c3n2)COC1 [Crenolanib] | -2.58 | 50.94 | -3.79 | 53.92 | – | – | – | –
18 | O=P1(N(CCCl)CCCl)NCCCO1 (stereo not shown) [Cyclophosphamide] | – | – | – | – | 44.96 | 10.37 | 48.17 | 7.81

Continued, in another order:

Row | Plate 1 (% inhibition) [1] [%] | Plate 1 (% conversion) [2] [%] | Plate 1-duplicate (% inhibition) [3] [%] | Plate 1-duplicate (% conversion) [4] [%] | Compound | Plate 1 (% conversion) [%] | Plate 1 (% inhibition) [%] | Plate 1-duplicate (% conversion) [%] | Plate 1-duplicate (% inhibition) [%]
19 | -15.11 | 56.73 | -6.96 | 55.49 | CN1CCN(c2ccc3nc(-c4c(N)c5c(F)cccc5[nH]c4=O)[nH]c3c2)CC1 [CHIR-258 (Dovitinib)] | – | – | – | –
20 | -9.77 | 54.26 | -16.99 | 60.47 | CC(C)C[C@@H](C(=O)N[C@H](C(=O)OC1CCCC1)c1ccccc1)[C@H](O)C(=O)NO [CHR 2797_Tosedostat] | – | – | – | –
21 | -8.77 | 53.80 | -20.49 | 62.20 | CO[C@H]1C(=O)[C@]2(C)[C@@H](OC)C[C@H]3OC[C@@]3(OC(C)=O)[C@H]2[C@H](OC(=O)c2ccccc2)[C@]2(O)C[C@H](OC(=O)[C@H](O)[C@@H](NC(=O)OC(C)(C)C)c3ccccc3)C(C)=C1C2(C)C [Cabazitaxel] | – | – | – | –
22 | -58.69 | 76.85 | -55.96 | 79.80 | C=CC(=O)Nc1cc2c(Nc3ccc(F)c(Cl)c3)ncnc2cc1OCCCN1CCOCC1 [Canertinib] | – | – | – | –
23 | -2.16 | 50.75 | -9.02 | 56.51 | CC(C)C[C@H](NC(=O)[C@H](CCc1ccccc1)NC(=O)CN1CCOCC1)C(=O)N[C@@H](Cc1ccccc1)C(=O)N[C@@H](CC(C)C)C(=O)[C@@]1(C)CO1 [Carfilzomib] | – | – | – | –
24 | -42.78 | 69.51 | -39.63 | 71.70 | Cc1cc(Nc2ncc(Cl)c(Nc3ccccc3S(=O)(=O)C(C)C)n2)c(OC(C)C)cc1C1CCNCC1 [Ceritinib] | – | – | – | –
25 | 59.99 | 22.05 | 68.69 | 17.97 | CCN(CC)CCOc1ccc(C(=C(Cl)c2ccccc2)c2ccccc2)cc1 [Clomifene citrate] | – | – | – | –
26 | -6.35 | 52.68 | -0.27 | 52.18 | C[C@@H](Oc1cc(-c2cnn(C3CCNCC3)c2)cnc1N)c1c(Cl)ccc(F)c1Cl [Crizotinib] | – | – | – | –
27 | 2.14 | 48.76 | 3.50 | 50.30 | Nc1ccn([C@@H]2O[C@H](CO)[C@@H](O)[C@@H]2O)c(=O)n1 [Cytarabine hydrochloride] | – | – | – | –
28 | 0.16 | 49.67 | 3.62 | 50.25 | CNC(=O)c1cc(Oc2ccc(NC(=O)Nc3cc(C(C)(C)C)nn3-c3ccc4ncccc4c3)c(F)c2)ccn1 [DCC-2036_Rebastinib] | – | – | – | –
